Experimental data reported in PMC9804781, “Identification of a Novel Pseudo‐Natural Product Type IV IDO1 Inhibitor Chemotype” (Angewandte Chemie (International Ed. in English), 2022).
Where two headings read alike, the source gives them in different places.

Key:
Kyn levels in HeLa cells = experiment: Manual Kyn assay in HeLa cells (p-DMAB detection); assay type: cell-based; conditions: for IC50: IFN-γ, L-Trp, p-DMAB
Method: Mammalian cell lines were maintained at 37°C and 5% CO2 in a humidified atmosphere and sub-cultivated twice a week. All cell lines were tested regularly for mycoplasma contamination and were always free of mycoplasma. BxPC-3 cells (DSMZ#760) were grown in RPMI-1640 medium supplemented with 10% FBS, 2 mM L-glutamine, 1 mM sodium pyruvate, 4.5 g/L glucose, 10 mM HEPES and 1.5 g/L NaHCO3. HeLa cells (DSMZ#57) were cultivated in DMEM supplemented with 10% FBS, 4.5 g/L glucose, 4 mM L-glutamine 1 mM sodium pyruvate, 1% non-essential amino acids, 3.7 g/L NaHCO3. SKOV-3 cells (ATCC#HTB-77) were maintained in modified McCoy’s 5A medium supplemented with 10% FBS, 1.5 mM L-glutamine and 2.2 g/L NaHCO3. […]
For manual testing, BxPC-3, HeLa or SKOV-3 cells (20,000 cells/well, 5,000 cells/well or 6,250 cells/well, respectively) were seeded in 96-well plates (BxPC-3 and HeLa) or 384-well plates (SKOV-3) in medium without phenol red. After 24 h, the IDO1 pathway was induced by addition of 50 ng/mL (BxPC-3 and HeLa) or 17.6 ng/mL IFN-γ (SKOV-3) and 380 µM (BxPC-3), 164.15 µM (HeLa) or 450 µM L-Trp (SKOV-3) with simultaneous treatment with the compounds at the indicated concentrations followed by incubation for 48 h. For the hemin competition assay, hemin was added together with IFN-γ, L-Trp and the compounds. Subsequently, trichloroacetic acid was added to a final concentration of 7% (v/v), the plates were incubated for 15 min at room […]
temperature and centrifuged for 10 min at 1800 x g. Afterwards, an equal volume of freshly prepared 2% (w/v) p-DMAB in glacial acetic acid (Ehrlich reagent) was added prior to measuring the absorbance at 492 nm and 650 nm on the Spark® Multimode Microplate Reader (Tecan, AT).
To determine the Kyn levels, the absorbance of the Kyn-p-DMAB adduct A492 was subtracted by the background absorbance A650 and normalized to the DMSO control. Data analysis was performed using a non-linear regression curve fit and GraphPad Prism 9.0 (GraphPad Software, Inc, US) to generate dose-response curves and obtain IC50 values. […]
Subsequently, 10 mM ascorbic acid, 10 μM methylene blue, 2 mM L-Trp and 100 μg/mL catalase were added and samples were incubated for 60 min at room temperature or 37°C. […]

IDO1 promoter = IDO1 promoter reporter gene assay in HEK293T cells; assay type: cell-based; conditions: IFN-γ, 48 h
Method: GraphPad Prism 9.0 (GraphPad Software, Inc, US) to generate dose-response curves and obtain […]
IDO1 promoter reporter gene assay
HEK293T cells (25,000 cells/well) were reverse-transfected with pXPG-IDO1[16] (4 µg/96-well plate, kindly provided by Gina M. Doody, Leeds, UK) and pRL-TK (300 ng/96-well plate, Promega, US) using Lipofectamine™ 2000 (Invitrogen, USA) pri or to incubation for 24 h. Afterwards, cells were treated with 50 ng/mL IFN-γ and the compounds for 48 h. Luminescence generated by the Fluc reporter and the control reporter Rluc was measured using the Dual-Glo ® Luciferase Assay System (Promega, US) on the Spark® Multimode Microplate Reader (Tecan, AT). To determine the IDO1 promoter activity, Fluc signals were divided by Rluc signals and normalized to the values of the DMSO control. Data analysis was performed using a non-linear regression curve fit and […]
BxPC-3 cells (30,000 cells/well) were seeded in 96-well plates in Trp-free RPMI 1640 medium and incubated for 48 h prior addition of 50 ng/mL IFN-γ. […]
The supernatant was transferred to a new plate, trichloroacetic acid was added to a final concentration of 7% (v/v) and plates were incubated for 15 min at room temperature. Samples were centrifuged for 10 min at 1800 x g and L-Trp was quantified by HPLC-MS/MS using the LTQ Velos Pro and Dionex HPLC (Thermo Fisher Scientific, US). […]

- IC50 (Kyn levels in HeLa cells; Homo sapiens, HeLa, 48 h, 48 h, mean±SD, n=3, read-out: Kyn assay IC50 HeLa): 0.0467 ± 0.0024 µM
- IC50 (Kyn levels in HeLa cells; 48 h, mean±SD, n=3, listed as apoxidole-1, read-out: Kyn assay IC50 HeLa): 0.0467 ± 0.00244 µM
- IC50 (Kyn levels in HeLa cells; compounds 48 h, mean n=3 ±SD, listed as 3d^a, read-out: Kyn Assay IC50): 0.28 ± 0.04 µM
- IC50 (Kyn levels in HeLa cells; compounds 48 h, mean n=3 ±SD, listed as 3d^ab, read-out: Kyn Assay IC50): 3.41 ± 0.26 µM
- IC50 (Kyn levels in HeLa cells; compounds 48 h, mean n=3 ±SD, listed as 3d^b, read-out: Kyn Assay IC50): 0.047 ± 0.002 µM
- IC50 (Kyn levels in HeLa cells; compounds 48 h, mean n=3 ±SD, read-out: Kyn Assay IC50): 0.07 ± 0.01 µM
Structure (SMILES): CCOC(=O)C1=CC[C@](C(=O)OC)(c2cc3ccccc3n2C)N(S(=O)(=O)c2ccc(C)cc2)[C@@H]1C(=O)OC(C)(C)C [Compound 3d]
- fold less active than enantiopure apoxidole-1 (Kyn assay) (Kyn levels in HeLa cells): 72 fold
- expression of the Fluc reporter under IDO1 promoter (IDO1 promoter): did not reduce the expression of the reporter
